# Data as given in US20230020329A1, “Annelated 9-hydroxy-1,8-dioxo-1,3,4,8-tetrahydro-2H-pyrido[1,2-a]pyrazine-7-carboxamides as HIV integrase inhibitors, methods of preparation and application thereof” (priority 2019, published 2023).
# Tested on: HIV-1 (IIIB strain)
# Assay: Anti-HIV cytoprotection assay (XTT), HIV-1 IIIB in CEM-SS cells
# Format: cell-based
# Details: Human immunodeficiency virus 1, IIIB, CEM-SS, CEM-SS cell line; read-out: Inhibitory activity (EC50) against HIV-1 (IIIB strain)
# Text: a) Inhibitory Activity of the Lymphocytropic Virus Strain HIV-1 (IIIB) in the CEM-SS Cell Line.
# The evaluation was done by ImQuest BioSciences, Inc. (Frederick, Md., USA). CEM-SS cells [Foley G. E. et al. Continuous Culture of Human Lymphoblasts from Peripheral Blood of a Child with Acute Leukemia. Cancer 1965, 18, 522-529] obtained through the NIH AIDS Research and Reference Reagent Program (Manassas, Va., USA) were passaged in T-75 flasks prior to use cell culture medium consisting of RPMI1640 medium (Lonza; Walkersville, Md., USA) supplemented with 10% heat inactivated fetal bovine serum (Gibco; Grand Island, N.Y.), […] L-glutamine (Lonza), […] penicillin (Lonza) and […] streptomycin (Lonza) for antiviral analysis. The CEM-SS cells were kept in RPMI 140 medium supplemented with 10% heat inactivated bovine fetal serum, 2 mM glutamine, 100 U/ml penicillin, and 100 μg/ml streptomycin.
# A lymphocytropic HIV-1 IIIB strain [Popovic, M. et al. Detection, isolation, and continuous production of cytopathic retroviruses (HTLV-III) from patients with AIDS and pre-AIDS. Science. 1984, 224 (4648), 497-500] was chosen for a virus to be analyzed. The virus was obtained through the NIH AIDS Research and Reference Reagents Program and grown in CEM-SS cells to produce a stock virus pool. A pre-titrated aliquot of the virus was removed from the freezer (−80° C.) and allowed to slowly thaw to room temperature in a biological safety cabinet. The virus was diluted in a tissue culture medium so that the amount of virus added in 50 μl per well was sufficient to kill 85 to 95% of the cells 6 days after infection. HIV-1 IIIB was grown and titrated in CEM-SS cells. The inhibitory effect of […] was evaluated in CEM-SS cells as described earlier [Nara, P. L. at al. Simple, rapid, quantitative, syncytium-forming microassay for the detection of human immunodeficiency virus neutralizing antibody. AIDS Res. Hum. Retroviruses 1987, 3, 283-302.] in microtiter plate anti-HIV assays to quantitatively assess the ability of a compound to inhibit HIV-induced cell death. Quantification was carried out using 2,3-bis-(2-methoxy-4-nitro-5-[…])-(2H)-tetrazolium-5-carboxanilide (XTT) tetrazolium, which is metabolized to a stained formazan product through viable […] The compounds given in Table 1 were dissolved at 10 μM in DMSO and stored at −20° C.
# Test materials were evaluated using antiviral assays in triplicate in concentrations of 30 and 10 nM. The compounds shown in table 1 were dissolved at 10 μM in DMSO and stored at −20° C. […] Sixty nanomolar concentrations of each compound (2 times that of the test concentration in the well) were prepared by diluting 10 μM DMSO stock 1:100 in cell culture medium (10 μl of compound added to 990 μl of the medium) followed by 1:10 dilution (10 μl of the compound was added to 90 μl of the medium), then 6 μl was added to 994 μl of the medium; […] μl was added to a 96-well microtiter plate in triplicate to ensure efficacy and one colorimetric well. Twenty nanomolar concentrations of each compound (twice as much as the test concentration in the well) were prepared by diluting 10 μM DMSO with the original 1:100 in cell culture medium (10 μl of the compound added to 990 μl of the medium) followed by diluting […] (10 μl of the compound was added to 900 μl of the medium), then 20 μl was added to 980 μl of the medium; 100 μl was added to a 96-well microtiter plate in triplicate to ensure efficacy and one colorimetric well.
# Azidothymidine (AZT) was purchased from Sigma Aldrich (USA) and evaluated as a positive control compound in an antiviral assay using a six-concentration reaction curve on each assay plate.
# Test compounds were initially evaluated for HIV-1 IIIB strain in CEM-SS cells at test concentrations of 30 and 10 nM. […]
row,Structure (SMILES),EC50
1,"C[C@H]1CO[C@@H]2Cn3cc(C(=O)NCc4ccc5c(ccn5C)c4)c(=O)c(O)c3C(=O)N12 [Compound 1.1.33, (3S,11aR)-6-hydroxy-3-methyl-N-[(1-methyl-1H-indol-5-yl)methyl]-5,7-dioxo-2,3,5,7,11,11a-hexahydro[1,3]oxazolo[3,2-a]pyrido[1,2-d]pyrazine-8-carboxamide]",10 to 30 nM
2,"C[C@H]1CO[C@@H]2Cn3cc(C(=O)NCc4ccc5c(c4)OCO5)c(=O)c(O)c3C(=O)N12 [Compound 1.1.34, (3S,11aR)-N-(1,3-benzodioxol-5-ylmethyl)-6-hydroxy-3-methyl-5,7-dioxo-2,3,5,7,11,11a-hexahydro[1,3]oxazolo[3,2-a]pyrido[1,2-d]pyrazine-8-carboxamide]",2 to 10 nM
3,"C[C@H]1CO[C@@H]2Cn3cc(C(=O)NCc4cc5c(cc4Br)OCO5)c(=O)c(O)c3C(=O)N12 [Compound 1.1.35, (3S,11aR)-N-[(6-bromo-1,3-benzodioxol-5-yl)methyl]-6-hydroxy-3-methyl-5,7-dioxo-2,3,5,7,11,11a-hexahydro[1,3]oxazolo[3,2-a]pyrido[1,2-d]pyrazine-8-carboxamide]",< 2 nM
4,"C[C@H]1CO[C@@H]2Cn3cc(C(=O)NCc4nc5cc(Cl)ccc5o4)c(=O)c(O)c3C(=O)N12 [Compound 1.1.38, (3S,11aR)-6-hydroxy-3-methyl-N-[(5-chloro-1,3-benzoxazol-2-yl)methyl]-5,7-dioxo-2,3,5,7,11,11a-hexahydro[1,3]oxazolo[3,2-a]pyrido[1,2-d]pyrazine-8-carboxamide]",> 30 nM
5,"C[C@H]1CO[C@@H]2Cn3cc(C(=O)NCc4nc5ccc(Cl)cc5o4)c(=O)c(O)c3C(=O)N12 [Compound 1.1.39, (3S,11aR)-6-hydroxy-3-methyl-N-[(6-chloro-1,3-benzoxazol-2-yl)methyl]-5,7-dioxo-2,3,5,7,11,11a-hexahydro[1,3]oxazolo[3,2-a]pyrido[1,2-d]pyrazine-8-carboxamide]",2 to 10 nM
6,"Cc1ccc2[nH]c(CNC(=O)c3cn4c(c(O)c3=O)C(=O)N3[C@@H](C)CO[C@@H]3C4)nc2c1 [Compound 1.1.40, (3S,11aR)-6-hydroxy-3-methyl-N-[(5-methyl-1H-benzimidazol-2-yl)methyl]-5,7-dioxo-2,3,5,7,11,11a-hexahydro[1,3]oxazolo[3,2-a]pyrido[1,2-d]pyrazine-8-carboxamide]",> 30 nM
7,"C[C@H]1CO[C@@H]2Cn3cc(C(=O)NCc4nc5cc(F)ccc5[nH]4)c(=O)c(O)c3C(=O)N12 [Compound 1.1.41, (3S,11aR)-6-hydroxy-3-methyl-N-[(5-ϕTopo-1H-benzimidazol-2-yl)methyl]-5,7-dioxo-2,3,5,7,11,11a-hexahydro[1,3]oxazolo[3,2-a]pyrido[1,2-d]pyrazine-8-carboxamide]",10 to 30 nM
8,"C[C@H]1CO[C@@H]2Cn3cc(C(=O)NCc4nc5ccccc5n4C)c(=O)c(O)c3C(=O)N12 [Compound 1.1.42, (3S,11aR)-6-hydroxy-3-methyl-N-[(1-methyl-benzimidazol-2-yl)methyl]-5,7-dioxo-2,3,5,7,11,11a-hexahydro[1,3]oxazolo[3,2-a]pyrido[1,2-d]pyrazine-8-carboxamide]",> 30 nM
9,"C[C@H]1CO[C@@H]2Cn3cc(C(=O)NCc4nc5ccc(Cl)cc5n4C)c(=O)c(O)c3C(=O)N12 [Compound 1.1.43, (3S,11aR)-6-hydroxy-3-methyl-N-[(1-methyl-6-chlorobenzimidazol-2-yl)methyl]-5,7-dioxo-2,3,5,7,11,11a-hexahydro[1,3]oxazolo[3,2-a]pyrido[1,2-d]pyrazine-8-carboxamide]",> 30 nM
10,"CC(C)n1c(CNC(=O)c2cn3c(c(O)c2=O)C(=O)N2[C@@H](C)CO[C@@H]2C3)nc2ccccc21 [Compound 1.1.44, (3S,11aR)-6-hydroxy-3-methyl-N-{[1-isopropyl-1H-benzimidazol-2-yl]methyl}-5,7-dioxo-2,3,5,7,11,11a-hexahydro[1,3]oxazolo[3,2-a]pyrido[1,2-d]pyrazine-8-carboxamide]",> 30 nM
11,"CC(C)n1c(CNC(=O)c2cn3c(c(O)c2=O)C(=O)N2[C@@H](C)CO[C@@H]2C3)nc2ccc(Cl)cc21 [Compound 1.1.45, (3S,11aR)-6-hydroxy-3-methyl-N-[(6-chloro-1-isopropyl-1H-benzimidazol-2-yl)methyl]-5,7-dioxo-2,3,5,7,11,11a-hexahydro[1,3]oxazolo[3,2-a]pyrido[1,2-d]pyrazine-8-carboxamide]",> 30 nM
12,"C[C@H]1CO[C@@H]2Cn3cc(C(=O)NCc4ccc5[nH]c(=O)[nH]c5c4)c(=O)c(O)c3C(=O)N12 [Compound 1.1.46, (3S,11aR)-6-hydroxy-N-[(2-oxo-2,3-dihydro-1H-benzimidazol-5-yl)methyl]-3-methyl-5,7-dioxo-2,3,5,7,11,11a-hexahydro[1,3]oxazolo[3,2-a]pyrido[1,2-d]pyrazine-8-carboxamide]",> 30 nM
13,"C[C@H]1CO[C@@H]2Cn3cc(C(=O)NCc4ccc5ccccc5n4)c(=O)c(O)c3C(=O)N12 [Compound 1.1.49, (3S,11aR)-6-hydroxy-3-methyl-N-(quinolin-2-ylmethyl)-5,7-dioxo-2,3,5,7,11,11a-hexahydro[1,3]oxazolo[3,2-a]pyrido[1,2-d]pyrazine-8-carboxamide]",2 to 10 nM
14,"C[C@H]1CO[C@@H]2Cn3cc(C(=O)NCc4cnc5ccccc5c4)c(=O)c(O)c3C(=O)N12 [Compound 1.1.50, (3S,11aR)-6-hydroxy-3-methyl-N-(quinolin-3-ylmethyl)-5,7-dioxo-2,3,5,7,11,11a-hexahydro[1,3]oxazolo[3,2-a]pyrido[1,2-d]pyrazine-8-carboxamide]",2 to 10 nM
15,"C[C@H]1CO[C@@H]2Cn3cc(C(=O)NCc4cccc5ncccc45)c(=O)c(O)c3C(=O)N12 [Compound 1.1.52, (3S,11aR)-6-hydroxy-3-methyl-N-(quinolin-5-ylmethyl)-5,7-dioxo-2,3,5,7,11,11a-hexahydro[1,3]oxazolo[3,2-a]pyrido[1,2-d]pyrazine-8-carboxamide]",~10 nM
16,"C[C@H]1CO[C@@H]2Cn3cc(C(=O)NCc4cnc5ccccn45)c(=O)c(O)c3C(=O)N12 [Compound 1.1.56, (3S,11aR)-6-hydroxy-N-(imidazo[1,2-a]pyridin-3-ylmethyl)-3-methyl-5,7-dioxo-2,3,5,7,11,11a-hexahydro[1,3]oxazolo[3,2-a]pyrido[1,2-d]pyrazine-8-carboxamide]",> 30 nM
17,"C[C@H]1CO[C@@H]2Cn3cc(C(=O)NCc4cn5cccnc5n4)c(=O)c(O)c3C(=O)N12 [Compound 1.1.58, (3S,11aR)-6-hydroxy-N-(imidazo[1,2-a]pyrimidin-2-ylmethyl)-3-methyl-5,7-dioxo-2,3,5,7,11,11a-hexahydro[1,3]oxazolo[3,2-a]pyrido[1,2-d]pyrazine-8-carboxamide]",> 30 nM
18,"C[C@H]1CO[C@@H]2Cn3cc(C(=O)NCc4cnc5cnccn45)c(=O)c(O)c3C(=O)N12 [Compound 1.1.59, (3S,11aR)-6-hydroxy-N-(imidazo[1,2-a]pyrazin-3-ylmethyl)-3-methyl-5,7-dioxo-2,3,5,7,11,11a-hexahydro[1,3]oxazolo[3,2-a]pyrido[1,2-d]pyrazine-8-carboxamide]",> 30 nM
19,"C[C@H]1CO[C@@H]2Cn3cc(C(=O)NCc4nnc5ccc(Cl)nn45)c(=O)c(O)c3C(=O)N12 [Compound 1.1.60, (3S,11aR)-6-hydroxy-3-methyl-N-[(6-chloro[1,2,4]triazolo[4,3-b]pyridazin-3-yl)methyl]-5,7-dioxo-2,3,5,7,11,11a-hexahydro[1,3]oxazolo[3,2-a]pyrido[1,2-d]pyrazine-8-carboxamide]",10 to 30 nM
